Data set [1] can be described thus: Mouse brain penetration (brain:blood ratio). As to conditions: in vivo, dosed intravenously at 0.5 or 1 mg/kg, levels measured after 5 min, female NMRI mice, read-out: B:B (brain to blood ratio). As for the experimental part:
Each compound was dosed as a bolus solution intravenously at 0.5 or 1 mg free base/kg (dose volume, 5 mL/kg; dose vehicle, 10% DMSO; 40% PEG400; 50% Milli-Q water) to female NMRI mice (n = 6). At 5 and 30 min following intravenous bolus injection of test compound, mice (n = 3/time point) were placed under terminal anesthesia with isofluorane. A blood sample was taken by cardiac puncture and mixed with two volumes of distilled water, the mice decapitated, and the brain removed. Diluted blood and brains were stored frozen until preparation and analysis by UPLC/MS/MS. For each mouse at each time point, the concentration in brain (ng/g) was divided by the concentration in blood (ng/mL) to give a brain:blood ratio. The mean value obtained was quoted.

The subject of the next data set is T. b. brucei GVR35. The note with it: 12.5 mg/kg IP b.i.d. for 5 d from 21 d post infection, majority of mice. As for the experimental part: For stage 2 of infection, the standard model is T. b. brucei GVR35 in which CNS infection is allowed to develop in female NMRI mice before treatment starts, requiring about 21 d.
These were carried out as previously described[27],[32] at the dose level presented and using the same dose formulation as the pharmacokinetic studies. HRN mice were used under the same infection and monitoring protocol as described for female NMRI mice.

A short description of the next data set: in vitro. The note with it: human, MRC-5 fibroblasts.

A word on the EC50: it is the concentration giving half of the maximal effect. A low value points to a more potent agent.

Procedure for in vitro: Proliferation assays using bloodstream form T. brucei brucei and human MRC-5 fibroblasts were conducted using a modification of the cell viability assay as previously reported.[27],[39]
MRC-5 cells (2000 cells per well) were seeded in 200 μL of DMEM, 10% FCS, and allowed to adhere overnight. One microliter of test compound was added to each well on the day of assay initiation.
The final DMSO level was 0.5% in all cases.

As to `CNC(=O)[C@H]1Cc2ccccc2N1C(=O)Cc1ccc(F)cc1` [Compound 47, (R)-1-(2-(4-Fluorophenyl)acetyl)-N-methylindoline-2-carboxamide], the Kp at 5 min in data set [1] was found to be 0.9. Also, the “relapse with parasitaemia later than vehicle dosed infected mice” value in the data set with T. b. brucei GVR35 was 6 to 13 days. Besides, the EC50 at 69 h in “in vitro” was greater than 50 µM.

For the origin of these results see PMC4601051, “Discovery of Indoline-2-carboxamide Derivatives as a New Class of Brain-Penetrant Inhibitors of Trypanosoma brucei” (Journal of Medicinal Chemistry, 2015).
